Entries after “also recorded” stand apart in the source; their conditions may differ. Read-outs that look alike come from different tables or passages of the source.
Tests used:
[1] = system: Sprague-Dawley rats; experiment: Total EEG power and blood pressure during continuous ketamine infusion; type: in vivo, rat; conditions: highest calabadion 2 dose, baseline 96 mmHg, n=10
[2] = system: S.typhimurium TA 98; experiment: Bacteria reverse mutation assay; conditions: for ratio of number of colonies after treatment relative to untreated bacteria: <1.6 not mutagenic
[3] = system: Sprague-Dawley rats; experiment: Time to recovery from loss of righting reflex; type: in vivo, rat
[4] = molecular target: hERG channel (Homo sapiens, UniProt Q12809); conditions: read-out: IC50, hERG channel; CHO-hERG, patch clamp, up to 25 μM
[5] = system: Sprague-Dawley rats; experiment: Maximal tolerated dose escalation study with histopathology in rats; type: in vivo, rat
[6] = system: S.typhimurium TA1535, TA 1537, TA 98 and TA 100; experiment: Bacteria reverse mutation assay; conditions: Ames test, −/+S9
[7] = system: rats; experiment: Balance beam test of functional mobility after anesthesia; type: in vivo, rat; conditions: n=7
[8] = Job plot; type: physicochemical; conditions: calabadion 2•ketamine, total 1 mM, pD 7.4; establishes 1:1 complex
[9] = system: S.typhimurium TA 1537; experiment: Bacteria reverse mutation assay; conditions: for ratio of number of colonies after treatment relative to untreated bacteria: <1.6 not mutagenic
[10] = system: THP-1, HepG2 and HEK293 cells; experiment: Adenylate kinase release cell necrosis; type: cell-based, human; conditions: calabadion 2 up to 1 mM
[11] = system: S.typhimurium TA 1535; conditions: for ratio of number of colonies after treatment relative to untreated bacteria: <1.6 not mutagenic
[12] = system: kidney cells (HEK293); experiment: MTS cell viability assay; type: cell-based, human; conditions: calabadion 2 up to 1 mM
[13] = system: S.typhimurium TA 100; conditions: for ratio of number of colonies after treatment relative to untreated bacteria: <1.6 not mutagenic
[14] = system: liver cells (HepG2); experiment: MTS cell viability assay; type: cell-based, human; conditions: calabadion 2 up to 1 mM
[15] = system: Swiss Webster mice; experiment: Dose escalation; type: in vivo, mouse
[16] = system: human white blood cells (THP-1); experiment: MTS cell viability assay; type: cell-based; conditions: calabadion 2 up to 1 mM
[17] = system: Sprague-Dawley rats; experiment: Burst suppression ratio and blood pressure during continuous etomidate infusion; type: in vivo, rat; conditions: continuous etomidate i.v.; escalating calabadion 2 infusion; returned from 83%; n=10
[18] = Job plot; type: physicochemical; conditions: calabadion 2•etomidate; establishes 1:1 complex

Chain of hERG channel (Q12809 whole entry): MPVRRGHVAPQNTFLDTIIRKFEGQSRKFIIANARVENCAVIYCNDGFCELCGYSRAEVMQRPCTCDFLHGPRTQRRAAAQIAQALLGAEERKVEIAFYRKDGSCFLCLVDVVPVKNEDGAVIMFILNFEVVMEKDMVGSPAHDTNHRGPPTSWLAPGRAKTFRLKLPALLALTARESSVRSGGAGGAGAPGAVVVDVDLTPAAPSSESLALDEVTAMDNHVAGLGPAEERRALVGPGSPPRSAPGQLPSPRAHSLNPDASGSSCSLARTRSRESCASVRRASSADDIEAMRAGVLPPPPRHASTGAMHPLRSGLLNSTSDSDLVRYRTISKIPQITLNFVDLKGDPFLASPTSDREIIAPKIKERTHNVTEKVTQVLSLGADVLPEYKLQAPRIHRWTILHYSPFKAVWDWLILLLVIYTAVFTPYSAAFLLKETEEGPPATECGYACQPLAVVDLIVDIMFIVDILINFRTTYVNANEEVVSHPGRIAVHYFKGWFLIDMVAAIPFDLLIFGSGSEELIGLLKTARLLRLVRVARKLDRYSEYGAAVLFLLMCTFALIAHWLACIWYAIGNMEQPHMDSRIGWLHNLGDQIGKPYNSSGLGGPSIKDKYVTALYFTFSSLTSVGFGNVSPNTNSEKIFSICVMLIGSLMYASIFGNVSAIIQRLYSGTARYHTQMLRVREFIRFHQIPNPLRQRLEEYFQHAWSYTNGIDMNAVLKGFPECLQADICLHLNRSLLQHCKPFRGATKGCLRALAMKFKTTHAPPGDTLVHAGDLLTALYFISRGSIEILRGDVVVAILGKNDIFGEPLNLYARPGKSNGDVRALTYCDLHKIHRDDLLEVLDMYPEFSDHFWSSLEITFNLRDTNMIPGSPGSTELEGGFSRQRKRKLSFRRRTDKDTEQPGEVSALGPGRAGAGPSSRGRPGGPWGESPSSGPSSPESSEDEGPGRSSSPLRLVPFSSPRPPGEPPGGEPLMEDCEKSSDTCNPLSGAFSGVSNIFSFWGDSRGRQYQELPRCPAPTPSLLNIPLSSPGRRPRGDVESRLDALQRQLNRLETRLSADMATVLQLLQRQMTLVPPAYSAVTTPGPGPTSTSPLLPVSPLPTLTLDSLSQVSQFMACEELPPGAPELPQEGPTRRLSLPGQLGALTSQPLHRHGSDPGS

With C[C@]12N3Cc4c(c(OCCCS(=O)(=O)[O-])c5ccccc5c4OCCCS(=O)(=O)[O-])CN1C(=O)N1CN4C(=O)N5CN6C(=O)N7CN8C(=O)N9Cc%10c(c(OCCCS(=O)(=O)[O-])c%11ccccc%11c%10OCCCS(=O)(=O)[O-])CN%10C(=O)N(CN%11C(=O)N(CN%12C(=O)N(CN(C3=O)[C@]12C)[C@@H]4[C@H]%125)[C@@H]6[C@H]%117)[C@]8(C)[C@@]9%10C.[Na+].[Na+].[Na+].[Na+] [Calabadion 2] the “MAP compared to pre-ketamine baseline” value [1] was ~130%, the “number of colonies growing after treatment” value (shortened to “number of colonies growing”) ([2]; TA 98, +S9, 0.012 mg per plate) was 24 ± 4 and the “number of colonies growing” value ([2]; TA 98, +S9, 0.037 mg per plate) was 27 ± 3. The “number of colonies growing” value ([2]; TA 98, +S9, 0.11 mg per plate) was 23 ± 5, the “number of colonies growing” value ([2]; TA 98, +S9, 0.33 mg per plate) was 24 ± 7 and the “number of colonies growing” value ([2]; TA 98, +S9, 1 mg per plate) was 29 ± 6. For the same compound, the “ratio of number of colonies after treatment relative to untreated bacteria” value ([2]; TA 98, +S9) was 1.07, the “number of colonies growing” value ([2]; TA 98, −S9, 0.012 mg per plate) was 24 ± 4 and the “number of colonies growing” value ([2]; TA 98, −S9, 0.037 mg per plate) was 18 ± 8. The “number of colonies growing” value ([2]; TA 98, −S9, 0.11 mg per plate) was 30 ± 10, the “number of colonies growing” value ([2]; TA 98, −S9, 0.33 mg per plate) was 21 ± 5 and the “number of colonies growing” value ([2]; TA 98, −S9, 1 mg per plate) was 20 ± 5. The “ratio of number of colonies after treatment relative to untreated bacteria” value ([2]; TA 98, −S9) was 1.05, the “decrease of time to recovery from LORR relative to saline” value ([3]; etomidate-anesthetized rats) was ~50% and the “decrease of time to recovery from LORR relative to saline” value ([3]; ketamine anesthetized rats) was “about 30%”. The “ED50 (median dose for accelerated recovery from LORR with 50% probability)” value ([3]; reversal of 4 mg/kg i.v. etomidate bolus) was 984 mg/kg, the “ED50 (median dose for accelerated recovery from LORR with 50% probability)” value ([3]; reversal of 30 mg/kg i.v. bolus of ketamine, 30 mg/kg) was 167 mg/kg and the IC50 [4] was > 25 µM. For the same compound, the “tolerability at effective doses” value [5] was “well tolerated”, the “pathology finding, kidney” value ([5]; 5 of 6 animals that received the 2 highest doses, not at 1.6 g/kg) was “• A mild vacuolation of the epithelium in the P1 and P2 segments of the proximal convoluted tubule” and the “pathology finding, liver” value ([5]; all animals that received 3.1–5.1 g/kg, 1 animal that received 1.6 g/kg) was “• Mild to moderate vacuolation that is consistent with mild fat accumulation”. For the same compound, the “pathology finding, lung” value ([5]; animals receiving 3.1–5.1 g/kg) was “Mild cellular necrosis, some apparent fluid in alveolar spaces and enlarged, foamy pulmonary alveolar macrophages; also recorded: Occasional distension of pulmonary alveolar capillaries with red blood cells and in a few animals evidence of possible pulmonary emboli; also recorded: Macrophages, especially in connective tissue or adipose tissue that were distended with a bluish, hematoxylin-positive material that appeared to be localized in the lysosomes”, the “pathology finding, heart” value ([5]; i.v. up to 5.1 g/kg, all doses) was “• Within normal limits” and the “pathology finding, spleen” value ([5]; i.v. up to 5.1 g/kg, all doses) was “• Within normal limits”. The “median lethal dose (LD50)” value ([5]; i.v., escalating doses on consecutive days, n=10) was 2700 mg/kg, the mutagenic potential [6] was “no mutagenic potential” and the “reduction of time slope of recovery of balance vs saline” value (shortened to “reduction of time slope … vs saline”) ([7]; after 4 mg/kg etomidate i.v.) was 4.9 min. For the same compound, the “reduction of time slope … vs saline” value ([7]; after 30 mg/kg ketamine i.v.) was 3.9 min, the “reduction of time slope … vs saline” value ([7]; after 50 mg/kg ketamine i.m., calabadion 2 i.p.) was 15.7 min and the “Job plot maximum (mole fraction)” value [8] was 0.5. The “number of colonies growing” value ([9]; TA 1537, +S9, 0.012 mg per plate) was 2 ± 1, the “number of colonies growing” value ([9]; TA 1537, +S9, 0.037 mg per plate) was 4 ± 1 and the “number of colonies growing” value ([9]; TA 1537, +S9, 0.11 mg per plate) was 6 ± 1. For the same compound, the “number of colonies growing” value ([9]; TA 1537, +S9, 0.33 mg per plate) was 6 ± 1, the “number of colonies growing” value ([9]; TA 1537, +S9, 1 mg per plate) was 5 ± 2 and the “ratio of number of colonies after treatment relative to untreated bacteria” value ([9]; TA 1537, +S9) was 0.71. The “number of colonies growing” value ([9]; TA 1537, −S9, 0.012 mg per plate) was 7 ± 2, the “number of colonies growing” value ([9]; TA 1537, −S9, 0.037 mg per plate) was 8 ± 2 and the “number of colonies growing” value ([9]; TA 1537, −S9, 0.11 mg per plate) was 7 ± 2. For the same compound, the “number of colonies growing” value ([9]; TA 1537, −S9, 0.33 mg per plate) was 8 ± 1, the “number of colonies growing” value ([9]; TA 1537, −S9, 1 mg per plate) was 3 ± 2 and the “ratio of number of colonies after treatment relative to untreated bacteria” value ([9]; TA 1537, −S9) was 0.3. The cell lysis [10] was “no cell lysis”, the “number of colonies growing” value ([11]; TA 1535, +S9, 0.012 mg per plate) was 10 ± 2 and the “number of colonies growing” value ([11]; TA 1535, +S9, 0.037 mg per plate) was 6 ± 2. The “number of colonies growing” value ([11]; TA 1535, +S9, 0.11 mg per plate) was 7 ± 1, the “number of colonies growing” value ([11]; TA 1535, +S9, 0.33 mg per plate) was 10 ± 5 and the “number of colonies growing” value ([11]; TA 1535, +S9, 1 mg per plate) was 7 ± 3. For the same compound, the “ratio of number of colonies after treatment relative to untreated bacteria” value ([11]; TA 1535, +S9) was 0.87, the “number of colonies growing” value ([11]; TA 1535, −S9, 0.012 mg per plate) was 6 ± 1 and the “number of colonies growing” value ([11]; TA 1535, −S9, 0.037 mg per plate) was 10 ± 5. The “number of colonies growing” value ([11]; TA 1535, −S9, 0.11 mg per plate) was 8 ± 3, the “number of colonies growing” value ([11]; TA 1535, −S9, 0.33 mg per plate) was 7 ± 4 and the “number of colonies growing” value ([11]; TA 1535, −S9, 1 mg per plate) was 8 ± 3. The “ratio of number of colonies after treatment relative to untreated bacteria” value ([11]; TA 1535, −S9) was 0.72, the cell viability [12] was “only a slight dip” and the “number of colonies growing” value ([13]; TA 100, +S9, 0.012 mg per plate) was 114 ± 2. The “number of colonies growing” value ([13]; TA 100, +S9, 0.037 mg per plate) was 112 ± 8, the “number of colonies growing” value ([13]; TA 100, +S9, 0.11 mg per plate) was 91 ± 6 and the “number of colonies growing” value ([13]; TA 100, +S9, 0.33 mg per plate) was 101 ± 7. For the same compound, the “number of colonies growing” value ([13]; TA 100, +S9, 1 mg per plate) was 97 ± 4, the “ratio of number of colonies after treatment relative to untreated bacteria” value ([13]; TA 100, +S9) was 0.88 and the “number of colonies growing” value ([13]; TA 100, −S9, 0.012 mg per plate) was 92 ± 11. For the same compound, the “number of colonies growing” value ([13]; TA 100, −S9, 0.037 mg per plate) was 100 ± 6, the “number of colonies growing” value ([13]; TA 100, −S9, 0.11 mg per plate) was 94 ± 4 and the “number of colonies growing” value ([13]; TA 100, −S9, 0.33 mg per plate) was 105 ± 9. The “number of colonies growing” value ([13]; TA 100, −S9, 1 mg per plate) was 106 ± 6, the “ratio of number of colonies after treatment relative to untreated bacteria” value ([13]; TA 100, −S9) was 1.06 and the cell viability [14] was “did not observe a significant reduction”. For the same compound, the “average weight change of mice” value ([15]; all groups (29, 87, 145, 203 mg/kg i.p. daily for 14 days), after 28 days) was ≥ 95%, the “tolerance in maximum tolerated dose study” value ([15]; mice, i.p. daily for 14 days, up to 203 mg/kg) was “good tolerance” and the cell viability [16] was “did not observe a significant reduction”. For the same compound, the “mean arterial blood pressure (MAP), % of pre-etomidate baseline” value [17] was 101% and the “Job plot maximum (mole fraction)” value [18] was 0.5.

Reference: publication PMC4955735 (Anesthesiology, 2016)
